{"source": "patent US12564569B2", "about": "“Carboplatin complex and pharmaceutical preparation thereof” (ADVANCHL BIO[…] CENTER (SHANGHAI), priority 2019, dated 2026)", "key": {"linear DNA": {"tested_on": "linear DNA", "test": "Binding assay with a linear DNA", "conditions": "in a certain period of time"}, "[1]": {"tested_on": "supercoiled plasmid (pcDNA) with or without T4 GP41 DNA helicase", "test": "DNA binding test involving helicase (gel electrophoresis)", "type": "biochemical", "conditions": "Test 1 vs Test 4; 0.1 mmol/L, 1 hour, 37° C.", "description": "In this experiment, the effect of a helicase on carboplatin 4.0 was verified by a DNA binding test involved by the helicase, including: using the supercoiled and linear plasmid DNA (Hr. pcDNA, which can be extracted in a conventional manner) as a template, changing the DNA conformation through reactions by combining with different platinum-based anticancer drugs, and then distinguishing different platinum drugs by differences in gel electrophoretograms. […]\nThe following samples (test numbers 1-5 and M) were analyzed under the above experimental conditions, and the addition of pcDNA, drugs, and helicases in each sample was shown as follows: • Test 1: pcDNA+Carboplatin+T4 • Test 2: pcDNA+Carboplatin 4.0+T4 • Test 3: pcDNA+Carboplatin 4.0 • Test 4: pcDNA+Carboplatin • Test 5: pcDNA Test M: Marker (Reference Standard)"}, "[2]": {"test": "Cytotoxicity experiments for antiviral application", "type": "cell-based"}, "supercoiled plasmid DNA": {"tested_on": "supercoiled plasmid DNA", "test": "Mixing with supercoiled plasmid DNA, electrophoresis", "type": "binding", "conditions": "electrophoresis after a period of time"}}, "data": [{"smiles": "N.N.O=C([O-])C1(C(=O)[O-])CCC1.[Pt+2]", "note": "[carboplatin]", "values": [{"measurement": "cross-linking with linear DNA", "setting": "linear DNA", "result": "quickly forms a cross-linked adduct with DNA"}, {"measurement": "effect of the helicase on DNA binding of the drug", "setting": "[1]", "result": "no obvious effect"}, {"measurement": "cytotoxicity evaluation for application in an antiviral aspect", "setting": "[2]", "result": "hinders its application in the antiviral aspect"}, {"measurement": "crosslinking with supercoiled plasmid DNA", "setting": "supercoiled plasmid DNA", "result": "crosslinks with the supercoiled plasmid DNA to form a adduct"}]}]}
